Laboratory results taken from US12129244B2, “Modulators of Mas-related G-protein receptor X2 and related products and methods” (Escient Pharmaceuticals, Inc., priority 2022, dated 2024).

Key:
[1] = target: T1, human MRGPRX2 (Homo sapiens, UniProt Q96LB1); assay: MRGPRX2 activity: IP-One HTRF antagonist assay in CHO cells versus Cortistatin-14; assay type: cell-based; conditions: CHO cells stably expressing human MRGPRX2; versus 0.3 uM Cortistatin-14 agonist; IP-1 HTRF
T1 construct: expressed in transfected cells
T1 sequence (Q96LB1 1-330): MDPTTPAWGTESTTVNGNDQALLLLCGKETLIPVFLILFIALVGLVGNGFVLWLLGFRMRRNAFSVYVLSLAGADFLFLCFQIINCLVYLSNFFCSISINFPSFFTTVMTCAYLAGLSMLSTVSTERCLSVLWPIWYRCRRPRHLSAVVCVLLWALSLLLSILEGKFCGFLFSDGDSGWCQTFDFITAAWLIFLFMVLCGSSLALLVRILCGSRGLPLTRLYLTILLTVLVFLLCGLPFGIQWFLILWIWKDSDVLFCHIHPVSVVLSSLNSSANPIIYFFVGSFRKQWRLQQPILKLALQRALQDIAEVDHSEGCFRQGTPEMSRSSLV
Method: CHO cells stably transfected to express human MRGPRX2 were maintained in an incubator at 37° C. with 5% CO2 and grown in F12 (HAM) media with 10% fetal bovine serum (FBS), 1% Glutamax, 1% penicillin/streptomycin, 800 μg/mL Geneticin (G418), and 300 μg/mL Hygromycin B.
Cells were plated in a 384-well assay plate at 20,000 cells per well in 12 μL of Opti-MEM and kept in an incubator overnight. On the day of the assay, compounds solubilized at 10 mM in DMSO were added as a 10-point curve (30 uM final top concentration with 1:3 serial dilutions) using a Tecan D300E digital dispenser. Agonists were diluted in assay buffer (final concentrations of 5.7 mM Tris-HCl, 43 mM NaCl, 50 mM LiCl, pH=8) and 2 μL of the agonist Cortistatin-14 (CPC Scientific, catalog CORT-002) are added to each well. Final concentrations of agonists were 0.3 μM Cortistatin. Final concentrations of DMSO were kept consistent across the plate. Plates were incubated in the dark for 1 h at 37° C. and then for 1 h at room temperature. IP-1 standards and HTRF detection reagents were added according to the IP-One-Gq Kit purchased from Cisbio (part number 62IPAPEJ) and incubated in the dark for 1 h at room temperature. The plate was read on a Molecular Devices SpectraMax iD5 plate reader. The HTRF ratio was calculated from the raw data and graphed using GraphPad Prism to calculate an IC50 value for each compound.
The activity ranges are denoted as follows: “+++++” denotes antagonist activity <100 nM; “++++” denotes antagonist activity between 100 and 500 nM; “+++” denotes activity between 501 and 1000 nM; “[…]” denotes activity between 1001 and 2500 nM; and “+” denotes activity >2500 nM

[2] = Mouse Pharmacokinetics Studies (50 mg/kg oral gavage, plasma LC-MS/MS); assay type: in vivo; conditions: Male C57BL/6 mice, non-fasted; for AUC(0-t) / Cmax / Tmax: mouse; for Tmax: read-out: PK: Tmax
Method: Compounds were formulated in 5% DMSO, 5% Solutol, and 90% PBS without Ca and Mg (pH 7.4) at a concentration of 5 mg/mL. Male C57BL/6 mice (n=3/compound) were administered a 50 mg/kg dose of each compound by oral gavage under a non-fasted condition. Blood samples were collected via the saphenous vein onto K2-EDTA at 0.25, 0.5, 1, 2, 4, 8 and 24 hours after dosing, and plasma was prepared and stored at −80° C. until analysis. Plasma sample preparation for analysis was done by protein precipitation using acetonitrile (including Verapamil as an internal standard) followed by centrifugation. Compound concentrations were determined in extracted plasma using LC-MS/MS relative to a 12-point standard curve covering the 1 to 4000 nM range. Non-compartmental analysis using Phoenix WinNonlin was used to estimate pharmacokinetic parameters including area under the curve, clearance, and half-life. The administered dose was confirmed by analysis of residual dosing material by UPLC-UV relative to a single point calibration sample.

[3] = system: Human LAD2 cells; assay: Mast Cell Beta-Hexosaminidase Release Assay; assay type: cell-based; conditions: 500 nM Cortistatin-14, read-out: MRGPRX2 Antagonist Activity
Method: Human LAD2 cells (NIH) were maintained in an incubator at 37° C. with 5% CO2 and cultured in StemPro-34 serum-free media (Gibco 10639011) supplemented with 2 mM L-glutamine, 100 U/ml penicillin, […] streptomycin and 100 ng/ml SCF (Invitrogen PEP0860), at a concentration of 2-5×10^5 cells/mL, with hemidepletion every 1-2 weeks.
Cells were transferred to SCF-Free medium at 2.5×10^5 cells/mL and kept in an incubator overnight. On the day of the assay, cells were washed twice in Assay Buffer (final concentrations 10 mM HEPES, 137 mM NaCl, 5.6 mM D-glucose, 2.7 mM KCl, 1 mM MgCl, 1.8 mM CalCl2, 0.4 mM Na2HPO4·7H2O, 0.04% BSA, pH=7.4) and plated in a 96-well v-bottom plate at 20,000 cells per well in 80 μL Assay Buffer. Antagonist compounds solubilized at 10 mM in DMSO were diluted in Assay Buffer to 10× final desired concentrations as a 10-point curve (10 μM final top concentration with 1:3 serial dilutions) and 10 μL added per well. Plates were then incubated for 1 hour at 37° C. Agonists were diluted in Assay Buffer to 10× desired concentrations and 10 μL of the appropriate agonist added to each well. The final concentration of Cortistatin-14 (Tocris 3374) used in antagonist assays was 500 nM. Final concentrations of DMSO were kept consistent across the plate. Plates were then incubated in a warm air oven for 30 minutes at 37° C., followed by centrifugation at 4° C. for 5 minutes at 450×g. 50 μL supernatant from each well was then transferred to a 96-well flat bottom plate containing 100 μL substrate solution per well (3.5 mg/mL p-Nitrophenyl-N-acetyl-β-D-glucosaminide (Sigma 487052) in Citrate Buffer containing a final concentration of 40 mM Citric Acid, 20 mM Na2HPO4·7H2O, pH=4.5). To the cell pellets left in the remaining assay buffer, 150 μL 0.1% Triton-X-100 was then added to each well, resuspended by pipetting up and down, and 50 μL cell lysates transferred to a second 96-well flat bottom plate containing 100 μL substrate solution per well. Plates containing transferred supernatant and cell lysates were then incubated in a warm air oven for 90 minutes at 37° C. After incubation, 50 μL of 400 mM Glycine buffer (pH 10.7) was added into each well and the plate was read on a Molecular Devices SpectraMax iD5 plate reader (absorbance at 405 nm with reference filter at 620 nm). After background subtraction, the percentage degranulation (percent beta-hexosaminidase release) was calculated as 100×(supernatant values)/(supernatant+lysate values), followed by analysis using GraphPad Prism software to calculate an IC50 value for each compound.
The activity ranges are denoted as follows: “+++++” denotes antagonist activity <100 nM; “++++” denotes antagonist activity between 100 and 500 nM; “+++” denotes activity between 501 and 1000 nM; “++” denotes activity between 1001 and 2500 nM; and “+” denotes activity >2500 nM.

For Nc1ccc(C(=O)N[C@@H]2CCC[C@H](Nc3cc(C(F)(F)F)nc4ccc(Cl)cc34)C2)cn1 [Example 3-19], the IC50 [1] was < 0.1 µM, the “AUC 0-24” value [2] was 220 µM·h and the AUC(0-t) [2] was 220 µM·h. For the same compound, the Cmax [2] was 46 µM and the Tmax [2] was 0.83 h.
For CCn1cc(C(=O)N[C@@H]2CCC[C@H](Nc3cc(C(F)(F)F)nc4ccc(Cl)cc34)C2)cn1 [Example 4-366], the “AUC 0-24” value [2] was 290 µM·h, the AUC(0-t) [2] was 290 µM·h and the Cmax [2] was 44 µM. It also gave a Tmax [2] of 1 h.
For CC(C)C(=O)N1CCN(C(=O)N[C@@H]2CCC[C@H](Nc3cc(C(F)(F)F)nc4ccc(Cl)cc34)C2)CC1 [Example 44, N-((1R,3S)-3-((6-chloro-2-(trifluoromethyl)quinolin-4-yl)amino)cyclohexyl)-4-isobutyrylpiperazine-1-carboxamide], the IC50 [3] was < 0.1 µM.
CC(C)S(=O)(=O)Nc1ccc(F)c(C(=O)N[C@@H]2CCC[C@H](Nc3cc(C(F)(F)F)nc4ccc(F)cc34)C2)c1F [Example 4-318] gave an IC50 [3] of 0.501 to 1 µM.
In the case of CC(=O)Nc1cccc(C(=O)N[C@@H]2CCC[C@H](Nc3cc(C(F)(F)F)nc4ccc(F)cc34)C2)c1 [Example 4-306], the IC50 [3] is reported as < 0.1 µM.
With Cc1nn(C(C)C)cc1C(=O)N[C@@H]1CCC[C@H](Nc2cc(C(F)(F)F)nc3ccc(Cl)cc23)C1 [Example 4-402] the IC50 [1] was < 0.1 µM, the “AUC 0-24” value [2] was 150 µM·h and the AUC(0-t) [2] was 150 µM·h. For the same compound, the Cmax [2] was 14 µM and the Tmax [2] was 2 h.
For N#CCn1cc(C(=O)N[C@@H]2CCC[C@H](Nc3cc(C(F)(F)F)nc4ccc(Cl)cc34)C2)c(Cl)n1 [Example 5-3], the IC50 [3] was < 0.1 µM.
In the case of Cc1ccc(C(=O)N[C@@H]2CCC[C@H](Nc3cc(C(F)(F)F)nc4ccc(Cl)cc34)C2)cn1 [Example 4-403], the IC50 [1] is reported as < 0.1 µM, the “AUC 0-24” value [2] is reported as 130 µM·h and the AUC(0-t) [2] is reported as 130 µM·h. It also gave a Cmax [2] of 15 µM and a Tmax [2] of 2.3 h.
With CCS(=O)(=O)Nc1cccc(C(=O)N[C@@H]2CCC[C@H](Nc3cc(C(F)(F)F)nc4ccc(Cl)cc34)C2)c1 [Example 4-241] the IC50 [3] was < 0.1 µM.
In the case of O=C(N[C@@H]1CCC[C@H](Nc2cc(C(F)(F)F)nc3ccc(Cl)cc23)C1)c1ccc(F)nc1 [4-411], the IC50 [3] is reported as < 0.1 µM.
With O=C(N[C@@H]1CCC[C@H](Nc2cc(C(F)(F)F)nc3ccc(F)cc23)C1)c1cccc(O)c1 [Example 4-284] the IC50 [1] was < 0.1 µM.
For Cc1ccc2nc(C(F)(F)F)cc(N[C@H]3CCC[C@@H](NC(=O)c4cccc(N(C)C)c4)C3)c2c1 [Example 4-159], the IC50 [1] was 0.1 to 0.5 µM.
With CNc1ccccc1C(=O)N[C@@H]1CCC[C@H](Nc2cc(C(F)(F)F)nc3ccc(C)cc23)C1 [Example 4-165] the IC50 [1] was 0.501 to 1 µM.
For Nc1ncccc1C(=O)N[C@@H]1CCC[C@H](Nc2cc(C(F)(F)F)nc3ccc(Cl)cc23)C1 [Example 4-409], the IC50 [1] was < 0.1 µM, the “AUC 0-24” value [2] was 280 µM·h and the AUC(0-t) [2] was 280 µM·h. It also gave a Cmax [2] of 25 µM and a Tmax [2] of 2.7 h.
In the case of O=C(N[C@@H]1CCC[C@H](Nc2cc(C(F)(F)F)nc3ccccc23)C1)C1COCCN1Cc1ccccc1 (mixture of isomers) [Example 4-31], the IC50 [1] is reported as > 2.5 µM.
With COc1ccc(C(=O)N[C@@H]2CCC[C@H](Nc3cc(C(F)(F)F)nc4ccc(F)cc34)C2)cc1 [Example 1-4] the “AUC 0-24” value [2] was 120 µM·h, the AUC(0-t) [2] was 120 µM·h and the Cmax [2] was 8.6 µM. The Tmax [2] was 6.7 h.
For Nc1cnc(Cl)c(C(=O)N[C@@H]2CCC[C@H](Nc3cc(C(F)(F)F)nc4ccc(Cl)cc34)C2)c1 [Example 4-418], the IC50 [1] was < 0.1 µM.
For O=C(N[C@@H]1CCC[C@H](Nc2cc(C(F)(F)F)nc3ccc(Cl)cc23)C1)c1c[nH]cc1C(F)(F)F [Example 4-394], the IC50 [1] was < 0.1 µM.
Compound CCCn1nccc1C(=O)N[C@@H]1CCC[C@H](Nc2cc(C(F)(F)F)nc3ccc(F)cc23)C1 [Example 4-325] has an IC50 [1] of 0.1 to 0.5 µM.
For O=C(N[C@@H]1CCC[C@H](Nc2cc(C(F)(F)F)nc3ccc(Cl)cc23)C1)c1cncc2cn[nH]c12 [Example 4-398], the IC50 [1] was < 0.1 µM.
With O=C(N[C@@H]1CCC[C@H](Nc2cc(C(F)(F)F)nc3ccc(Cl)cc23)C1)c1ccnc2cn[nH]c12 [Example 4-263] the IC50 [1] was < 0.1 µM.
With O=C(N[C@@H]1CCC[C@H](Nc2cc(C(F)(F)F)nc3ccc(Cl)cc23)C1)c1cnn(C2CCCCC2)c1 [Example 4-487] the IC50 [1] was < 0.1 µM.
COC(=O)c1cccc(C(=O)N[C@@H]2CCC[C@H](Nc3cc(C(F)(F)F)nc4ccccc34)C2)c1 [Example 3-5] showed an IC50 [1] of 0.1 to 0.5 µM.
For O=C(N[C@@H]1CCC[C@H](Nc2cc(C(F)(F)F)nc3ccccc23)C1)c1ccccc1Oc1ccccc1 (racemic) [Example 4-113], the IC50 [1] was > 2.5 µM.
In the case of Cc1c(C(=O)N[C@@H]2CCC[C@H](Nc3cc(C(F)(F)F)nc4ccc(Cl)cc34)C2)cnn1C1CCNCC1 [Example 19, N-((1R,3S)-3-((6-chloro-2-(trifluoromethyl)quinolin-4-yl)amino)cyclohexyl)-5-methyl-1-(piperidin-4-yl)-1H-pyrazole-4-carboxamide], the IC50 [1] is reported as < 0.1 µM.
In the case of Cc1cc(C(=O)N[C@@H]2CCC[C@H](Nc3cc(C(F)(F)F)nc4ccc(Cl)cc34)C2)cn1CCF [Example 5-2], the IC50 [3] is reported as < 0.1 µM.
In the case of CC1(F)CN(C(=O)N[C@@H]2CCC[C@H](Nc3cc(C(F)(F)F)nc4ccc(Cl)cc34)C2)C1 [Example 45, N-((1R,3S)-3-((6-chloro-2-(trifluoromethyl)quinolin-4-yl)amino)cyclohexyl)-3-fluoro-3-methylazetidine-1-carboxamide], the IC50 [3] is reported as 0.1 to 0.5 µM.
In the case of O=C(N[C@@H]1CCC[C@H](Nc2cc(C(F)(F)F)nc3ccc(Cl)cc23)C1)c1cnn(C(F)F)c1 [Example 4-399], the “AUC 0-24” value [2] is reported as 230 µM·h, the AUC(0-t) [2] is reported as 230 µM·h and the Cmax [2] is reported as 19 µM. The Tmax [2] was 3.7 h.
